# Laboratory results published in patent US5759995A, “Antiviral treatment” (priority 1996, dated 1998).
# Columns and labels:
# uninfected Vero cells = experiment: Vero cell growth inhibition (SRB stain); assay type: cell-based, African Green monkey; conditions: 48 hours
# Procedure: The effect of cyclomarin-A on the growth of uninfected Vero cells was examined. Vero cells were grown in RPMI with 5% FBS and passaged twice weekly by trypsinization. These were plated in 96 well sterile tissue culture plates at 2×10^4 cells/well in 200 μl and incubated overnight at 37° C. in a humidified atmosphere with 5% CO2. Cyclomarin-A (10 mg/ml stock solution) was serially diluted (100, 50, 25 and 12.5 μg/ml final concentrations) in 100% DMSO, and added to the cells in a volume of 2 μl. Final DMSO concentration was 1%. Plates were incubated at 37° C. for 48 hours. Cells were fixed by addition of 50% TCA to each well. Plates were incubated at 4° C. for 1 hour. After washing cells with distilled water 0.4% SRB (sulforhodamine B in 1% acetic acid) stain was added to each well. After 25 minutes the stain was washed away with 1% acetic acid and wells were allowed to dry. The remaining stain was resolubilized in 10 mM Tris pH 10.0. Optical density (OD) was determined spectrophotometrically at 650 nm. Percent inhibition of cell growth was calculated based on no drug, vehicle (1% DMSO) control wells as 100%.
# HSV-2 [1] = experiment: Multiplicity of infection study using the HSV-2 ELISA assay; assay type: cell-based, Herpes Simplex virus 2; conditions: 18 hours
# Procedure: (§1) The ability of cyclomarin-A to inhibit HSV-2 was tested in a culture-based ELISA assay. This assay measures viral glycoprotein inserted into the surface membrane of infected cells, a step in the process of viral replication. Vero cells (African Green monkey kidney cells) were grown in RPMI-1640 medium with L-glutamine (Quality Biological, Gaithersburg, Md.) with 5% fetal bovine serum (FBS) and passaged twice weekly by trypsinization. These were plated in 96-well sterile tissue culture plates at 2×10^4 cells/well. After incubation overnight at 37° C. in a humidified atmosphere with 5% CO2, wells were inoculated with 1000 plaque forming units per well (PFU/well) HSV-2 (MacIntyre strain, ATCC # VR-539), previously titered by plaque assay and stored at -80° C. Virus was absorbed for 1 hour. Cyclomarin-A was diluted to concentrations between 10^-7 g/ml and 10^-4 g/ml in 50% DMSO and added to the cells in a final volume of 1.5 μl with 150 μl RPMI and 1% FBS. The final DMSO concentration was 0.5%. Plates were incubated for 18 hours at 37° C., and fixed with 10% formalin to inactivate the virus.
# (§2) Plates were incubated for 1 hour with a rabbit anti-HSV-2 IgG antibody diluted 1:5000 (DAKO, Carpenteria, Calif., catalog #B116), washed with PBS and incubated another hour with an HRP-labeled goat anti-rabbit antibody diluted 1:4000 (DAKO, catalog #PO448). After washing with PBS, TMB substrate was added for 15 minutes and reaction was stopped with addition of 1M phosphoric acid. OD was measured spectrophotometrically at a wavelength of 450 nm. Percent inhibition of HSV-2 was calculated against an infected, vehicle control (DMSO) with no drug added.
# The effect of multiplicity of virus infection on cyclomarin-A activity was examined using the HSV-2 ELISA assay described in Example 1. Vero cell cultures were inoculated with HSV-2 to a final concentration of 500, 1000, 2500, and 5000 PFU/well. After cyclomarin-A was added to cells in 150 μl RPMI and 1% FBS, cells were incubated for 18 hours at which time the ELISA assay was completed. Percent inhibition of HSV-2 replication was calculated against an infected, vehicle control (DMSO) at the appropriate MOI with no drug added.
# HSV-2 [2] = experiment: Combination study with acyclovir using the HSV-2 ELISA assay; assay type: cell-based, Herpes Simplex virus 2; conditions: cyclomarin-A 0 to 16 μg/ml, acyclovir 0 to 5 μg/ml
# Procedure: as §1, with “The final DMSO concentration was 0.5%. Plates were incubated for 18 hours at 37° C., and fixed with 10% formalin to inactivate the virus.” left out
# as §2, with “After washing with PBS, TMB substrate was added for 15 minutes and reaction was stopped with addition of 1M phosphoric acid.” left out, “added. […]” for “added.”
structure (smiles),measurement,setting,value
COC(c1ccccc1)[C@@H]1NC(=O)[C@H](C)NC(=O)[C@H](CC(C)CO)N(C)C(=O)[C@H](C(O)c2cn(C(C)(C)C3CO3)c3ccccc23)NC(=O)[C@H](C(C)C=C(C)C)NC(=O)[C@H](CC(C)C)N(C)C(=O)[C@H](C(C)C)NC1=O (stereo partly shown) [cyclomarin-A],Percent inhibition of cell growth of uninfected Vero cells,uninfected Vero cells; 100 μg/ml,27-33%
same,Effect on growth of uninfected Vero cells,uninfected Vero cells; concentrations below 50 μg/ml,no effect on cell growth
same,Percent inhibition of HSV-2 replication,"HSV-2 [1]; 6.25 μg/ml cyclomarin-A, 500 PFU/well",51%
same,Percent inhibition of HSV-2 replication,"HSV-2 [1]; 6.25 μg/ml cyclomarin-A, 1000 PFU/well",40%
same,Percent inhibition of HSV-2 replication,"HSV-2 [1]; 6.25 μg/ml cyclomarin-A, 2,500 PFU/well",17%
same,Percent inhibition of HSV-2 replication,"HSV-2 [1]; 6.25 μg/ml cyclomarin-A, 5000 PFU/well",no detectable inhibition
same,Interference with acyclovir in combination,HSV-2 [2],no interference with acyclovir
